Data set [1] has as its system TNF. As to the kind of experiment: Modulation of TNF production in Colon 38 tumour-bearing mice (serum and tumour, ELISA). Format: in vivo. Particulars: 3 h. On the procedure:
Mice with Colon 38 tumours, approximately 5-7 mm in diameter, were divided into groups of 5. One group was untreated. Other groups were treated with DMXAA (25 mg/kg) alone; DMXAA (25 mg/kg)+thalidomide (100 mg/kg), DMXAA (25 mg/kg)+PG (100 mg/kg), DMXAA (25 mg/kg)+PiG (100 mg/kg), DMXAA (25 mg/kg)+CG (100 mg/kg), DMXAA (25 mg/kg)+thalidomide (20 mg/kg), DMXAA (25 mg/kg)+CG (20 mg/kg), and thalidomide, PG, PiG or CG only at 100 and 200 mg/kg. Three hours after treatment, mice were anaesthetized with halothane (NZ Pharmacology Ltd., Christchurch, New Zealand), and blood was collected from the ocular sinus and tumours were excised. Blood was coagulated overnight at 4° C., and then centrifuged for 30 min at 2,000×g and 4° C., and the serum was removed and stored at −80° C. until use. Tumour tissues were weighed and homogenized in 1.5 ml α-minimal essential medium (Gibco, Grand Island, N.Y., USA). The homogenates were centrifuged (2,000×g, 30 min, 4° C.) and supernatant was removed and re-centrifuged (14,000×g, 30 min, 4° C.). The final supernatants were removed and kept at −80° C. until use. TNF levels in serum and supernatants derived from tumour homogenates were assayed for TNF as described in section 4 (below).
(§1) TNF was assayed using a commercially available ELISA kit (OpEIA human or murine TNF kit, PharMingen, San Diego, Calif., USA), according to the manufacturer's instructions. Briefly, samples (100 μl/well) in duplicate together with a serial dilution of TNF (31.25-2000 pg/ml) for the standard curve, were added to flat-bottom 96-well plates pre-coated with immobilised monoclonal anti-TNF antibody and incubated at room temperature for 2 h. The wells were then washed, biotinylated polyclonal antibody to TNF was added, followed by peroxidase-labelled streptavidin, and incubated at room temperature for 1 h. The wells were washed again, and the substrate, tetramethylbenzidine and hydrogen peroxide was added and after 10 min the reaction was stopped with 2 N sulphuric acid. The absorbance at 450 nm was determined using a microtitre plate reader.

The subject of data set [2] is ECV304 cells. As to the kind of experiment: Inhibition of tube formation of ECV304 cells in Matrigel. The class given is cell-based, human. On the procedure: Each well in a 24-well plate was coated with 300 μl of Matrigel (Becton Dickinson, San Jose, Calif., USA) which was allowed to solidified at 37° C. for 1 h. […] After 15-18 h of incubation at 37° C. at 5% CO2, the culture supernatant was aspirated. The cells were fixed and stained using Diff-Quick staining kit (Dade AG, Dudingen, Switzerland) according to the manufacturer's instructions. After removal of the staining solution the stained cells in each well were photographed along with a measuring ruler placed at the bottom edge of the photographing field (Olympus Camedia C-5050 professional digital camera, Olympus Optical, Tokyo, Japan). The total length of the tubes formed in the photographs was measured and divided by the area of the field (mm/mm^2).

A further data set relates to Colon 38 tumours. As to the kind of experiment: Tumour growth delay, Colon 38 tumours in mice, combination with DMXAA. To be noted: for tumour volumes at 21 days after treatment compared with DMXAA alone: FIG. 2; for inhibition of tumour growth compared with DMXAA alone: 100 mg/kg i.p. co-administered with DMXAA 25 mg/kg, FIG. 1A. The class given is in vivo. An excerpt: Mice (C57B1/6 bred at the Animal Resources Unit, University of Auckland, New Zealand) were implanted with Colon 38 tumours, obtained originally from the Mason Research Institute (Auckland, New Zewaland) by transferring 1 mm^3 pieces of the tumour into a subcutaneous opening in the left flank of anaesthetized mice. The mice with tumours were used for growth delay experiments when tumours had reached approximately 3-5 mm in diameter. Mice were divided into 10 groups, an untreated control group, a group treated intraperitoneally (i.p.) with DMXAA (5,6-dimethylxanthenone-4-acetic acid, synthesized at the Auckland Cancer Society Research Centre—ACSRC (Auckland, New Zealand) at 25 mg/kg only, and 8 groups treated with DMXAA together with the hydrolytic thalidomide metabolites PG, PiG, CG also synthesized at the ACSRC as previously described (Lu et al, 2003), or thalidomide at 100 mg/kg, or together with CG or thalidomide at 20 mg/kg or 4 mg/kg. DMXAA was dissolved in saline at 2.5 mg/ml and injected i.p. into mice in a volume of 10 μl/g body weight. Thalidomide, PG, PiG and CG were dissolved in dimethylsulphoxide at 40, 8 or 1.6 mg/ml (for dosages of 100, 20, 4 mg/kg respectively) and injected i.p. in a volume of 2.5 μl/g body weight. Tumours were measured 2-3 times weekly after treatment and tumour volumes were calculated as 0.52×a^2×b, where a and b are the minor and major axes of the tumour. The arithmetic means and standard errors were calculated for each point, counting cured animals as having zero tumour volume, and expressed as fractions of the pre-treatment volume. Growth delay was determined as the difference in the number of days required for the tumour to reach four times the pre-treatment volume.

For data set [3], the system named is TNF. Description: LPS-induced TNF production by HPBL in culture. The class given is cell-based, human. To be noted: HPBL, LPS 100 pg/ml, 12 h; all concentrations tested (PG, PiG: 1, 5, 25 μg/ml); FIG. 5. As for the experimental part: Blood (20 ml) each from seven healthy volunteers was collected into heparinized tubes, and was overlayed on top of 10 ml of Ficoll-Paque Plus (Amersham Biosciences AB, Uppsala, Sweden) in 50 ml Falcon polypropylene conical tubes (Becton Dickson Labware, Franklin Lakes, N.J.). The tubes were centrifuged for 30 min at 300×g and 4° C., and the layer of cells was removed and re-suspended at 1×10^6 cells/ml in A-MEM medium supplemented with foetal bovine serum (Moregate BioTech Ltd, Hamilton, New Zealand) (10% v/v), streptomycin sulphate (100 μg/ml) and penicillin-G (100 units/ml) (Sigma, St Louis, Mo., USA). Cells were added to a 24-well plate (Nunc, Kamstrup, Roskilde, Denmark) with LPS (Escherichia coli serotype 055:B5; Sigma, St. Louis, Mo., USA) plus thalidomide or CG at 0.04, 0.2, 1, 5, 25 & 100 μg/ml; or PG or PiG at 1, 5 & 25 μg/ml in a final volume of 1 ml. Wells containing cells only and cells plus LPS only were included as controls. After 12 hours of incubation, supernatants were removed and assayed immediately for TNF as described in section 4.
as §1

Data set [4] deals with ECV304 cells. As to the kind of experiment: MTT cytotoxicity assay. Format: cell-based, human. Particulars: 18 h, 2-250/g/ml, vs untreated or DMSO-treated cultures. On the procedure:
The 3-(4,5-dimethylthiazol-2-yl)-2,5-diphenyl tetrazolium bromide (MTT) assay, which measures mitochondrial metabolic activity, was used to determine cell viability (Mosmann, 1983). Cells (4×10^3/well) were cultured with various concentrations of thalidomide, CG, PG and PiG in a final volume of 100 μl M199 medium (Gibco, Grand Island, N.Y., USA) supplemented with 10% foetal bovine serum ([…] streptomycin sulphate and 100 units/ml penicillin-G (Sigma, St Louis, Calif., USA) in flat-bottomed 96-well plates at 37° C. at 5% CO2 for 18 h. At the end of the incubation period, 10 μl of MTT (Sigma, St. Louis, Mo., 5 mg/ml in PBS) was added to each well, and the cells were further incubated for 2 h. The supernatants were then removed and the formazan crystals in the cells were dissolved by the addition of 100 μl of DMSO per well, and the absorbance at 590 nm was read using a plate reader. Each concentration of drug was tested in triplicate wells, and the mean ±standard error of the mean (SEM) was calculated.

Where [5] appears, read: all concentrations tested, FIG. 6.
Setting [6] is: 100 mg/kg co-administered with DMXAA 25 mg/kg, FIG. 3A.
[7] abbreviates: 100 mg/kg co-administered with DMXAA 25 mg/kg, FIG. 3B.
The mark [8] stands for this setting: 100 mg/kg co-administered with DMXAA 25 mg/kg.

The structures appear in SMILES notation.

Regarding `Cc1ccc2c(=O)c3cccc(CC(=O)O)c3oc2c1C` [DMXAA, 5,6-dimethylxanthenone-4-acetic acid, reference compound], the “increase in serum TNF activity above control untreated mice” value with TNF [1] (DMXAA alone 25 mg/kg, FIG. 3A) is 20 fold. In the data set on TNF [1] (DMXAA alone 25 mg/kg, FIG. 3B), the “increase in tumour TNF activity above control untreated mice” value came out at 50 fold.
Take `NC(=O)CCC(C(=O)O)N1C(=O)c2ccccc2C1=O` (stereo not shown) [PG, 5-Amino-2-(1,3-dioxo-1,3-dihydro-2H-isoindol-2-yl)-5-oxopentanoic acid]: the “inhibition of tube formation” value in the data set with ECV304 cells [2] (setting [5]) was “did not show any inhibition”. In addition, in the data set on TNF [1] (setting [6]), the “effect on DMXAA-induced serum TNF level” value is on record as “had no effect”. For the same molecule, the “effect on DMXAA-induced tumour TNF level” value with TNF [1] (setting [7]) is “had no effect”. Further, the “tumour volumes at 21 days after treatment compared with DMXAA alone” value (“tumour volumes … compared with DMXAA alone” for short) in the data set on Colon 38 tumours (setting [8]) was “no significant difference in tumour volumes”. For the same molecule, the “inhibition of tumour growth compared with DMXAA alone” value in the data set with Colon 38 tumours is given as “did not inhibit tumour growth above that of DMXAA alone”. In the data set on TNF [3], the “effect on LPS-induced TNF production” value is listed as “no significant effect”. In the data set on ECV304 cells [4], the “toxicity (cell viability, MTT)” value is on record as “No toxicity was observed”.
Consider `NC(=O)C(CCC(=O)O)N1C(=O)c2ccccc2C1=O` (stereo not shown) [PiG, 5-Amino-4-(1,3-dioxo-1,3-dihydro-2H-isoindol-2-yl)-5-oxopentanoic acid], for which, in the data set on ECV304 cells [2] (setting [5]), the “inhibition of tube formation” value is on record as “did not show any inhibition”. Moreover, the “effect on DMXAA-induced serum TNF level” value in the data set with TNF [1] (setting [6]) is given as “had no effect”. Besides, the “effect on DMXAA-induced tumour TNF level” value in the data set on TNF [1] (setting [7]) was “had no effect”. Also, the “tumour volumes … compared with DMXAA alone” value with Colon 38 tumours (setting [8]) is given as “no significant difference in tumour volumes”. The “inhibition of tumour growth compared with DMXAA alone” value in the data set on Colon 38 tumours is listed as “did not inhibit tumour growth above that of DMXAA alone”. Moreover, the “effect on LPS-induced TNF production” value with TNF [3] was “no significant effect”. In addition, the “toxicity (cell viability, MTT)” value in the data set on ECV304 cells [4] is “No toxicity was observed”.
By inhibition is commonly meant the percentage by which the read-out fell short of the control. A high value points to a strong effect. With `O=C1CCC(N2C(=O)c3ccccc3C2=O)C(=O)N1` (stereo not drawn) [thalidomide, α-phthalimidoglutarimide], the “inhibition of tube formation” value in the data set on ECV304 cells [2] (250 μg/ml, FIGS. 6 & 7) was “Near complete inhibition”. This molecule also yielded an inhibition at 2 µg/mL in the data set with ECV304 cells [2] (Homo sapiens, ECV-304, lowest concentration tested, 2 μg/ml, FIG. 7) of 38 to 41%. For the same molecule, the “effect on DMXAA-induced serum TNF level” value in the data set with TNF [1] (20 mg/kg co-administered with DMXAA 25 mg/kg, FIG. 3A) is “reduced DMXAA-induced TNF levels in serum”; in the data set with TNF [1] (setting [6]), “reduced DMXAA-induced TNF levels in serum”. Besides, the “effect on DMXAA-induced tumour TNF level” value is recorded as “no significant effect” with TNF [1] (20 mg/kg co-administered with DMXAA 25 mg/kg, FIG. 3B) and “no significant effect” in the data set on TNF [1] (setting [7]). Also, the “potentiation of DMXAA-induced anti-tumour effects” value in the data set with Colon 38 tumours (4 mg/kg co-administered with DMXAA 25 mg/kg, FIG. 1C) is given as “neither CG nor thalidomide showed potentiation”. The entries for the “tumour volumes … compared with DMXAA alone” value with Colon 38 tumours (4 mg/kg co-administered with DMXAA 25 mg/kg) and with Colon 38 tumours (setting [8]) were “no significant difference” and “significantly smaller tumour volumes than those treated by DMXAA alone”, respectively. Further, in the data set on Colon 38 tumours, the “inhibition of tumour growth compared with DMXAA alone” value is given as “greater inhibition of tumour growth than that of DMXAA alone”. Moreover, the “effect on LPS-induced TNF production” value with TNF [3] is “significantly decreased LPS-induced TNF levels in a dose-dependent manner”. The “toxicity (cell viability, MTT)” value in the data set with ECV304 cells [4] is reported as “No toxicity was observed”.

Values taken from US20080167272A1, “Thalidomide metabolites and methods of use” (Auckland Uniservices Limited, priority 2005, published 2008).
